Data set [1] deals with T1, Lysine-specific histone demethylase 2 (Homo sapiens) (UniProt Q8NB78).
T1 sequence (whole entry): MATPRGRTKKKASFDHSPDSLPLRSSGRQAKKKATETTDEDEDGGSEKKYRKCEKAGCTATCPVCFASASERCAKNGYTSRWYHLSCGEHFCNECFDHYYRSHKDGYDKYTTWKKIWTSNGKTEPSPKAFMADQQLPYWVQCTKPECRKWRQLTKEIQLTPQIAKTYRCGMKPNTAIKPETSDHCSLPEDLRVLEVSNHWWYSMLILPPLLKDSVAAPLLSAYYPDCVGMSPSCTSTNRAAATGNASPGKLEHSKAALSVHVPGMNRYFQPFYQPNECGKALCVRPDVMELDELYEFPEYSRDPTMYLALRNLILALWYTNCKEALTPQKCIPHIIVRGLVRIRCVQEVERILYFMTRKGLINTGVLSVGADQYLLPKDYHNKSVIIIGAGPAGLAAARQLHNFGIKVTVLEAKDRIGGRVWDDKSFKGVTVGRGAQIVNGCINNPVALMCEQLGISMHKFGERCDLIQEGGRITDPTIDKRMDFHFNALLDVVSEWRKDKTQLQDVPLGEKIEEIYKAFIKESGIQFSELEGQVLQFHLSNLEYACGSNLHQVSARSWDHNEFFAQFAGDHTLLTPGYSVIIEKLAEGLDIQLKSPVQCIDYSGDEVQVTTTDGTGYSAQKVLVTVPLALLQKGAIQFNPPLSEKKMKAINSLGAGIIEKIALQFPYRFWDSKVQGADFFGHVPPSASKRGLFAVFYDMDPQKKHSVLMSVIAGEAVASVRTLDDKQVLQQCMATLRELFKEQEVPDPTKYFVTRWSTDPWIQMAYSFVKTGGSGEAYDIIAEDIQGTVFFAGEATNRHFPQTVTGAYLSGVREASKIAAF
Description: Inhibition of LSD2 (unknown origin) at 10 uM relative to control.

In data set [2] the target is T2, MAO-A (Amine oxidase [flavin-containing] A) (Homo sapiens, UniProt P21397).
T2 sequence (P21397 whole entry): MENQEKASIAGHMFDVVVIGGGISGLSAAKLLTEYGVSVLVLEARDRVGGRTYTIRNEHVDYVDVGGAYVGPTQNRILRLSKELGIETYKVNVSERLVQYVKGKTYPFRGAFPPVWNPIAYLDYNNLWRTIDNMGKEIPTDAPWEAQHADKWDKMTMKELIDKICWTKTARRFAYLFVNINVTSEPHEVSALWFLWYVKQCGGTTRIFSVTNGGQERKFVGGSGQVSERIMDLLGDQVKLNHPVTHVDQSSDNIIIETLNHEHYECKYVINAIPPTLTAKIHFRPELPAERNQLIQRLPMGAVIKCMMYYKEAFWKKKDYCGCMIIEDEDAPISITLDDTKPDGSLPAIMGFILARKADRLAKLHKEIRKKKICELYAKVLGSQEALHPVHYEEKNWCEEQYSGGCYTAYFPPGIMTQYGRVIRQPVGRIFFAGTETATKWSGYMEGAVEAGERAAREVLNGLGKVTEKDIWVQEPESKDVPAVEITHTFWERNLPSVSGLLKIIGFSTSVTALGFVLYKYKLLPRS
As to the kind of experiment: Inhibition of MAO-A (unknown origin) at 10 uM relative to control.

The target of data set [3] is T3, MAO-B (Amine oxidase [flavin-containing] B) (Homo sapiens, UniProt P27338).
T3 sequence (P27338 whole entry): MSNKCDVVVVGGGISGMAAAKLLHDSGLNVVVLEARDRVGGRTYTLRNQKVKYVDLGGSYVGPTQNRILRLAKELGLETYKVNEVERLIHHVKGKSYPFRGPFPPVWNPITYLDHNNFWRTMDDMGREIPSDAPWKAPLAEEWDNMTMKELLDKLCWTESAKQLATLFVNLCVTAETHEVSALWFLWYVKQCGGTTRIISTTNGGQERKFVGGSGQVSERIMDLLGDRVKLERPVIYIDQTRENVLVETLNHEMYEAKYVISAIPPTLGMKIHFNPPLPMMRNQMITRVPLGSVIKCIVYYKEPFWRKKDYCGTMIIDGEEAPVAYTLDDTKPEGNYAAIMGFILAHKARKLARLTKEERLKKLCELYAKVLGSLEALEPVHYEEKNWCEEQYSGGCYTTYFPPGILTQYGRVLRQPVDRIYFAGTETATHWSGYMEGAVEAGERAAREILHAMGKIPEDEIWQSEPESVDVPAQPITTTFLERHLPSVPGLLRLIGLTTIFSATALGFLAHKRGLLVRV
Description: Inhibition of MAO-B (unknown origin) at 10 uM relative to control.

For data set [4], the target named is T4, Lysine-specific histone demethylase 2 (Homo sapiens, UniProt Q8NB78).
T4 sequence (Q8NB78 whole entry): T1 sequence (whole entry)
Description: Inhibition of LSD2 (unknown origin).

Data set [5] concerns the target T5, Amine oxidase [flavin-containing] A (Homo sapiens, UniProt P21397).
T5 sequence (P21397 whole entry): T2 sequence (P21397 whole entry)
Description: Inhibition of MAO-A (unknown origin).

Data set [6] deals with T6, Amine oxidase [flavin-containing] B (Homo sapiens, UniProt P27338).
T6 sequence (P27338 whole entry): T3 sequence (P27338 whole entry)
Description: Inhibition of MAO-B (unknown origin).

The target of data set [7] is T7, Histone-lysine N-methyltransferase EHMT2 (Homo sapiens) (UniProt Q96KQ7).
T7 sequence (whole entry): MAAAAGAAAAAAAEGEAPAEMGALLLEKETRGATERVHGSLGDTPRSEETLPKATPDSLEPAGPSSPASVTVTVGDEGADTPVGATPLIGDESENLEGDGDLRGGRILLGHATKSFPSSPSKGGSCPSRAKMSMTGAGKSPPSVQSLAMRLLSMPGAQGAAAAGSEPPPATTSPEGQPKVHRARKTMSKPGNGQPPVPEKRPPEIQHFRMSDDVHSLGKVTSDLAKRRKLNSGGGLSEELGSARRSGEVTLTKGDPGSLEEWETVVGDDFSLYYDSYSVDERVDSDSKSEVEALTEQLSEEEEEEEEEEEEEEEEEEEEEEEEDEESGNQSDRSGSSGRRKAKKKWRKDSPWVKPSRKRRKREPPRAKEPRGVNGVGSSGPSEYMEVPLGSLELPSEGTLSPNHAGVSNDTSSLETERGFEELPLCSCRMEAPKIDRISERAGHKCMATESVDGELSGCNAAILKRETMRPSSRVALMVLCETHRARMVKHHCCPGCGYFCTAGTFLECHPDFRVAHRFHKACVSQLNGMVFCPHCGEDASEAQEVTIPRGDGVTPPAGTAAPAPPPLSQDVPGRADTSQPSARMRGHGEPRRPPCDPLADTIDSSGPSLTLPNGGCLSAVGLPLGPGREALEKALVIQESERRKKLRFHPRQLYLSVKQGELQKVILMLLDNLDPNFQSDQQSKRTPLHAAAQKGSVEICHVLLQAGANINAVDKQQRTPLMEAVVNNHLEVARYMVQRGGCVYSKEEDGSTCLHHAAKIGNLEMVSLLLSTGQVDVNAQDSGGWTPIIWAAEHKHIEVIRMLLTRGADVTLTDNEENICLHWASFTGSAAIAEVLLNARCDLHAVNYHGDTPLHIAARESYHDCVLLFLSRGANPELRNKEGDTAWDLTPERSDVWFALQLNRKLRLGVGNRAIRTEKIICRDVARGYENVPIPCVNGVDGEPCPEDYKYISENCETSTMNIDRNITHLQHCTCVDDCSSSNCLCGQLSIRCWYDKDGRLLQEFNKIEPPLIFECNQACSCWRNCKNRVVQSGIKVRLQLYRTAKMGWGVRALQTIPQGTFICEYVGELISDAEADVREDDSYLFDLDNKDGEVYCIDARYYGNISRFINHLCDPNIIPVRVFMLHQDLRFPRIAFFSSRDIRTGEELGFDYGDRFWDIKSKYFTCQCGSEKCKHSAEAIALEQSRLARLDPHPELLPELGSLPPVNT
Description: Inhibition of G9a (unknown origin).

Data set [8] concerns the target Epidermal growth factor receptor (Homo sapiens) (UniProt P00533). As to the kind of experiment: Inhibition of EGFR (unknown origin).
Data set [9] relates to BGC-823. As to the kind of experiment: Effect on LSD1 expression in human BGC-823 cells by Western blotting analysis. The data set is classed as functional, cell-based.
Data set [10] concerns BGC-823. As to the kind of experiment: Effect on H3K4me1 methylation in LSD1 knockout human BGC-823 cells at 2 to 8 uM by Western blotting analysis. The conditions noted are these: dose 2-8 µM. The data set is classed as functional, cell-based.
Data set [11] concerns BGC-823. As to the kind of experiment: Effect on H3K4me2 methylation in LSD1 knockout human BGC-823 cells at 2 to 8 uM by Western blotting analysis. The data set is classed as functional, cell-based. The conditions noted are these: dose 2-8 µM.
The subject of data set [12] is BGC-823. As to the kind of experiment: Effect on H3K4me3 methylation in LSD1 knockout human BGC-823 cells at 2 to 8 uM by Western blotting analysis. The data set is classed as functional, cell-based. The conditions noted are these: dose 2-8 µM.
The subject of data set [13] is BGC-823. Description: Downregulation of PD-L1 expression in human BGC-823 cells incubated for 5 days by Western blotting analysis. The data set is classed as functional, cell-based. The conditions noted are these: dose 2-8 µM, time 5.0 day.
Data set [14] concerns BGC-823. Description: Downregulation of PD-L1 expression in human BGC-823 cells at 2 to 8 uM by Western blotting analysis. The data set is classed as functional, cell-based. The conditions noted are these: dose 2-8 µM, TDE = time-dependent effect.
For data set [15], the system named is MFC. As to the kind of experiment: Downregulation of PD-L1 expression in MFC cells incubated for 5 days by Western blotting analysis. The data set is classed as functional, cell-based. The conditions noted are these: Mus musculus, dose 2-8 µM, time 5.0 day.
Data set [16] relates to MFC. Description: Downregulation of PD-L1 expression in MFC cells at 2 to 8 uM by Western blotting analysis. The data set is classed as functional, cell-based. The conditions noted are these: Mus musculus, dose 2-8 µM, TDE = time-dependent effect.
Data set [17] relates to BGC-823. As to the kind of experiment: Downregulation of PD-L1 expression in LSD1 knockout human BGC-823 cells at 2 to 8 uM incubated for 5 days by flow cytometry analysis. The data set is classed as functional, cell-based. The conditions noted are these: dose 2-8 µM, time 5.0 day.
In data set [18] the test system is BGC-823. Description: Cytotoxicity against human BGC-823 cells assessed as reduction in cell viability at 8 uM incubated for 5 days by SRB assay. The data set is classed as toxicity, cell-based. The conditions noted are these: bgc-823, 120 h, time 5 day.
For data set [19], the target named is Programmed cell death protein 1/Programmed cell death 1 ligand 1 (Homo sapiens) (UniProt Q15116+Q9NZQ7). Description: Inhibition of PD-1 to PD-L1 protein-protein interaction in human BGC-823 cells incubated for 5 days by DAPI staining based confocal microscopic analysis. The data set is classed as cell-based. The conditions noted are these: dose 2-8 µM, time 5.0 day.

pIC50: −log10 of the molar value. The source made the active and inactive calls. The rule behind the calls is not given here.

Among the data in ChEMBL document CHEMBL5579896, “Discovery of 2-Aryl-4-aminoquinazolin-Based LSD1 Inhibitors to Activate Immune Response in Gastric Cancer” (J Med Chem, 2024) are inhibition, IC50 and Activity values, retold here.

Chain of Epidermal growth factor receptor (Homo sapiens) (P00533 whole entry): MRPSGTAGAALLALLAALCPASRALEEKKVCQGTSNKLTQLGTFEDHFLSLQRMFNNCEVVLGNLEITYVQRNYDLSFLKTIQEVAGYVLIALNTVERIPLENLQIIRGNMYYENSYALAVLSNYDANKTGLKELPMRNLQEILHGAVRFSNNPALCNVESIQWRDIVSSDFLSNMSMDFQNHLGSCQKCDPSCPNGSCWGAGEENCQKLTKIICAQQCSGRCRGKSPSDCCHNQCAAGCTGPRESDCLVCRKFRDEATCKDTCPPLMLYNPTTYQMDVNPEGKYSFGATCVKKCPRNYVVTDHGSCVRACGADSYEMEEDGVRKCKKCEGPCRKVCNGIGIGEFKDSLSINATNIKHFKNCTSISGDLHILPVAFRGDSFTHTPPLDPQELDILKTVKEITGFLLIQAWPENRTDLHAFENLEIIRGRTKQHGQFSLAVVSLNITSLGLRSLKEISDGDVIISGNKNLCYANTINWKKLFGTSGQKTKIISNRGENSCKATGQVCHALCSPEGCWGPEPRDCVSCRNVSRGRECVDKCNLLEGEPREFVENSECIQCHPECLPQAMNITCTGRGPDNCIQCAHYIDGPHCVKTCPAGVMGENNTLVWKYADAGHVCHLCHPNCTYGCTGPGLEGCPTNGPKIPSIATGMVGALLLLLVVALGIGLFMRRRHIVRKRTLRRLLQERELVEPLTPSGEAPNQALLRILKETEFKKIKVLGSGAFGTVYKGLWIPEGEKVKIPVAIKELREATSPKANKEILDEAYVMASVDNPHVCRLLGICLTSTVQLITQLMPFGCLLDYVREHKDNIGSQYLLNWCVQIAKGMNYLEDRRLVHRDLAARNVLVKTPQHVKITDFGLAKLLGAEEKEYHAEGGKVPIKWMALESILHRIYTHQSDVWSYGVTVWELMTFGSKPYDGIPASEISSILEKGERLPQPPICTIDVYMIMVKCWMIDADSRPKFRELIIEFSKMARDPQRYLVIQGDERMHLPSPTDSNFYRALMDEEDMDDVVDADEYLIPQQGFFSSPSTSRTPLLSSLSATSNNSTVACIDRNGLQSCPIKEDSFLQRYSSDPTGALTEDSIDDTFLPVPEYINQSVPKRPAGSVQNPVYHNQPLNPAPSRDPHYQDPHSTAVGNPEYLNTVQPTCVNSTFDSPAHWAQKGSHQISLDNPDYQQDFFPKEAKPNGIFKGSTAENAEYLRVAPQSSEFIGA

As for `CCN(CC)c1ccc(Nc2nc(-c3ccc(S(C)(=O)=O)cc3)nc3ccccc23)cc1`, the results for the inhibition in data set [1] and in [19] were less than 10% and “Dose-Dependent Effect”, respectively. For the same compound, the inhibition at 10 µM in data set [2] and in [3] was less than 10% each time. The pIC50 in [4], in data set [5] and in data set [6] was less than 5.00 throughout. In addition, the inhibition result in data set [7] and in data set [8] was “inactive” in each case. In addition, the outcome with BGC-823 [9], in the data set with BGC-823 [10], with BGC-823 [11], with BGC-823 [12] and with BGC-823 [17] was inactive. In addition, the Activity result was “Dose-Dependent Effect” with BGC-823 [13]; “Tde” with BGC-823 [14]; “Dose-Dependent Effect” with MFC [15]; “Tde” in the data set with MFC [16]; “Non-Toxic” in the data set with BGC-823 [18].
